Test results: the supplement of paper PMC8960247
Structures can show the parent of a compound that is named as a salt. ± gives the standard error.

Experiments:
621-103 (TSC2-rescued) = test: relative viability vs DMSO; higher = less cytotoxic; conditions: serum: 10% FBS, 72 h
621-102 (TSC2-deficient) = test: as above; conditions: serum: 10% FBS, 72 h
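Note: immortalized renal angiomyolipoma cells stably carrying empty vector or TSC2, dosed in 384-well plates in DMEM, viability normalized to vehicle-treated wells within each plate.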

CC(O)(CS(=O)(=O)c1ccc(F)cc1)C(=O)Nc1ccc(C#N)c(C(F)(F)F)c1 (centres undefined) [Bicalutamide (Casodex)]
relative viability (621-103 (TSC2-rescued); 0.0001 µM): 105.2 ± 0.55% | relative viability (621-103 (TSC2-rescued); 0.001 µM): 102 ± 1.1% | relative viability (621-103 (TSC2-rescued); 0.01 µM): 101.3 ± 0.41% | relative viability (621-103 (TSC2-rescued); 0.1 µM): 102 ± 1.6% | relative viability (621-103 (TSC2-rescued); 1 µM): 102.5 ± 0.88% | relative viability (621-103 (TSC2-rescued); 10 µM): 102 ± 1.1% | relative viability (621-102 (TSC2-deficient); 0.0001 µM): 126 ± 1.3% | relative viability (621-102 (TSC2-deficient); 0.001 µM): 119 ± 3.4% | relative viability (621-102 (TSC2-deficient); 0.01 µM): 112 ± 1.2% | relative viability (621-102 (TSC2-deficient); 0.1 µM): 102 ± 2.8% | relative viability (621-102 (TSC2-deficient); 1 µM): 110.6 ± 0.79% | relative viability (621-102 (TSC2-deficient); 10 µM): 112 ± 1.8%

COc1cc(Nc2c(C#N)cnc3cc(OCCCN4CCN(C)CC4)c(OC)cc23)c(Cl)cc1Cl [Bosutinib (SKI-606)]
relative viability (621-103 (TSC2-rescued); 0.0001 µM): 85.39 ± 0.5% | relative viability (621-103 (TSC2-rescued); 0.001 µM): 93.6 ± 3% | relative viability (621-103 (TSC2-rescued); 0.01 µM): 94.5 ± 6% | relative viability (621-103 (TSC2-rescued); 0.1 µM): 90.2 ± 6.4% | relative viability (621-103 (TSC2-rescued); 1 µM): 69.5 ± 4% | relative viability (621-103 (TSC2-rescued); 10 µM): 1.86 ± 0.19% | relative viability (621-102 (TSC2-deficient); 0.0001 µM): 94.6 ± 3.7% | relative viability (621-102 (TSC2-deficient); 0.001 µM): 109 ± 3.2% | relative viability (621-102 (TSC2-deficient); 0.01 µM): 92.7 ± 6.8% | relative viability (621-102 (TSC2-deficient); 0.1 µM): 103 ± 7.9% | relative viability (621-102 (TSC2-deficient); 1 µM): 64.3 ± 7.2% | relative viability (621-102 (TSC2-deficient); 10 µM): 3.18 ± 0.88%

CCCCN1CCCCC1C(=O)Nc1c(C)cccc1C (centres undefined) [Bupivacaine HCl (marcain)]
relative viability (621-103 (TSC2-rescued); 0.0001 µM): 89.4 ± 2.3% | relative viability (621-103 (TSC2-rescued); 0.001 µM): 102 ± 4.2% | relative viability (621-103 (TSC2-rescued); 0.01 µM): 98.8 ± 1.7% | relative viability (621-103 (TSC2-rescued); 0.1 µM): 104 ± 4.7% | relative viability (621-103 (TSC2-rescued); 1 µM): 94.37 ± 0.47% | relative viability (621-103 (TSC2-rescued); 10 µM): 98.415 ± 0.003% | relative viability (621-102 (TSC2-deficient); 0.0001 µM): 97.4 ± 2.2% | relative viability (621-102 (TSC2-deficient); 0.001 µM): 104 ± 4.4% | relative viability (621-102 (TSC2-deficient); 0.01 µM): 93.47 ± 0.53% | relative viability (621-102 (TSC2-deficient); 0.1 µM): 93.5 ± 1.1% | relative viability (621-102 (TSC2-deficient); 1 µM): 94.1 ± 1.3% | relative viability (621-102 (TSC2-deficient); 10 µM): 100 ± 2.3%

CC[C@H](Nc1ncnc2[nH]cnc12)c1nc2cccc(F)c2c(=O)n1-c1ccccc1 [CAL-101]
relative viability (621-103 (TSC2-rescued); 0.0001 µM): 116 ± 3.1% | relative viability (621-103 (TSC2-rescued); 0.001 µM): 109 ± 3.1% | relative viability (621-103 (TSC2-rescued); 0.01 µM): 114 ± 1.2% | relative viability (621-103 (TSC2-rescued); 0.1 µM): 104 ± 3.4% | relative viability (621-103 (TSC2-rescued); 1 µM): 109 ± 2% | relative viability (621-103 (TSC2-rescued); 10 µM): 92.7 ± 4.7% | relative viability (621-102 (TSC2-deficient); 0.0001 µM): 104.38 ± 0.033% | relative viability (621-102 (TSC2-deficient); 0.001 µM): 117.5 ± 0.72% | relative viability (621-102 (TSC2-deficient); 0.01 µM): 111 ± 5.8% | relative viability (621-102 (TSC2-deficient); 0.1 µM): 106 ± 3% | relative viability (621-102 (TSC2-deficient); 1 µM): 104.1 ± 0.72% | relative viability (621-102 (TSC2-deficient); 10 µM): 92.41 ± 0.24%

O=C(O)c1ccc2c(c1)nc(Nc1cccc(Cl)c1)c1ccncc12 [CX-4945]
relative viability (621-103 (TSC2-rescued); 0.0001 µM): 109 ± 5.8% | relative viability (621-103 (TSC2-rescued); 0.001 µM): 106.3 ± 0.77% | relative viability (621-103 (TSC2-rescued); 0.01 µM): 111 ± 7.9% | relative viability (621-103 (TSC2-rescued); 0.1 µM): 106 ± 3% | relative viability (621-103 (TSC2-rescued); 1 µM): 104 ± 3.2% | relative viability (621-103 (TSC2-rescued); 10 µM): 72.54 ± 0.24% | relative viability (621-102 (TSC2-deficient); 0.0001 µM): 95 ± 3.3% | relative viability (621-102 (TSC2-deficient); 0.001 µM): 93.1 ± 1.6% | relative viability (621-102 (TSC2-deficient); 0.01 µM): 102 ± 2.2% | relative viability (621-102 (TSC2-deficient); 0.1 µM): 103.8 ± 0.2% | relative viability (621-102 (TSC2-deficient); 1 µM): 101 ± 2.9% | relative viability (621-102 (TSC2-deficient); 10 µM): 80.4 ± 0.94%

Cc1nc(N)sc1-c1ccnc(Nc2ccc(N3CCOCC3)cc2)n1 [CYC116]
relative viability (621-103 (TSC2-rescued); 0.0001 µM): 91.6 ± 5.4% | relative viability (621-103 (TSC2-rescued); 0.001 µM): 94.51 ± 0.42% | relative viability (621-103 (TSC2-rescued); 0.01 µM): 101.6 ± 0.83% | relative viability (621-103 (TSC2-rescued); 0.1 µM): 95.1 ± 4.3% | relative viability (621-103 (TSC2-rescued); 1 µM): 72 ± 3.4% | relative viability (621-103 (TSC2-rescued); 10 µM): 28.3 ± 0.44% | relative viability (621-102 (TSC2-deficient); 0.0001 µM): 90.7 ± 2.7% | relative viability (621-102 (TSC2-deficient); 0.001 µM): 102 ± 4.6% | relative viability (621-102 (TSC2-deficient); 0.01 µM): 113.07 ± 0.029% | relative viability (621-102 (TSC2-deficient); 0.1 µM): 100.4 ± 0.47% | relative viability (621-102 (TSC2-deficient); 1 µM): 93.08 ± 0.77% | relative viability (621-102 (TSC2-deficient); 10 µM): 50.55 ± 0.13%

CC[C@@]1(O)C(=O)OCc2c1cc1n(c2=O)Cc2cc3ccccc3nc2-1 [Camptothecine]
relative viability (621-103 (TSC2-rescued); 0.0001 µM): 100.6 ± 0.37% | relative viability (621-103 (TSC2-rescued); 0.001 µM): 100.7 ± 0.47% | relative viability (621-103 (TSC2-rescued); 0.01 µM): 96.3 ± 4.5% | relative viability (621-103 (TSC2-rescued); 0.1 µM): 44.6 ± 2.1% | relative viability (621-103 (TSC2-rescued); 1 µM): 10.3 ± 0.36% | relative viability (621-103 (TSC2-rescued); 10 µM): 17.79 ± 0.099% | relative viability (621-102 (TSC2-deficient); 0.0001 µM): 104.3 ± 0.41% | relative viability (621-102 (TSC2-deficient); 0.001 µM): 106 ± 1.9% | relative viability (621-102 (TSC2-deficient); 0.01 µM): 101 ± 2.4% | relative viability (621-102 (TSC2-deficient); 0.1 µM): 57.8 ± 2.9% | relative viability (621-102 (TSC2-deficient); 1 µM): 12 ± 0.68% | relative viability (621-102 (TSC2-deficient); 10 µM): 19.5 ± 1.7%
